Measurements as given in the supplement of paper PMC10307832.

Legend:
Assay in all cases: relative viability (nuclei count vs DMSO), 5 days (fraction); higher = more cells survive
Palbociclib = compound: CC(=O)c1c(C)c2cnc(Nc3ccc(N4CCNCC4)cn3)nc2n(C2CCCC2)c1=O [Palbociclib]
Method in brief: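 Lung cancer cell lines received five library-drug doses (not always all listed) spaced by √10, pinned on vehicle-anchored 1536-well plates after an overnight stay at 37 °C. Five days later, with no medium change, nuclei were Hoechst-stained, imaged at 4× and counted with MetaXpress. Viability is treated-well nuclei relative to vehicle-well nuclei, as a median across plates. Passing plates had control CV below 25% and at least one doubling.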

Palbociclib + Tozasertib = compound: CC(=O)c1c(C)c2cnc(Nc3ccc(N4CCNCC4)cn3)nc2n(C2CCCC2)c1=O [Palbociclib] + Cc1cc(Nc2cc(N3CCN(C)CC3)nc(Sc3ccc(NC(=O)C4CC4)cc3)n2)n[nH]1 [Tozasertib] (partner 0.1 µM)
Method in brief: (§1)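 Medians of duplicate plates are given as relative viability. That measure is the nuclei count in treated wells divided by the count in vehicle wells. Counts were taken on 4× images of lung cancer cell lines in 1536-well plates, 5 days after pin-tool dosing the day after seeding with one drug alone or a fixed anchor-drug dose plus five library-drug doses (not always all listed) in √10 steps.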

Palbociclib + Trametinib = compound: CC(=O)c1c(C)c2cnc(Nc3ccc(N4CCNCC4)cn3)nc2n(C2CCCC2)c1=O [Palbociclib] + CC(=O)Nc1cccc(-n2c(=O)n(C3CC3)c(=O)c3c(Nc4ccc(I)cc4F)n(C)c(=O)c(C)c32)c1 [Trametinib] (partner 0.02 µM)
Method in brief: as §1

Palbociclib + Pemetrexed = compound: CC(=O)c1c(C)c2cnc(Nc3ccc(N4CCNCC4)cn3)nc2n(C2CCCC2)c1=O [Palbociclib] + Nc1nc2[nH]cc(CCc3ccc(C(=O)N[C@@H](CCC(=O)O)C(=O)O)cc3)c2c(=O)[nH]1 [Pemetrexed] (partner 0.2 µM)
Method in brief: as §1

Palbociclib + Vorinostat = compound: CC(=O)c1c(C)c2cnc(Nc3ccc(N4CCNCC4)cn3)nc2n(C2CCCC2)c1=O [Palbociclib] + O=C(CCCCCCC(=O)Nc1ccccc1)NO [Vorinostat] (partner 1 µM)
Method in brief: as §1

Palbociclib + Olaparib = compound: CC(=O)c1c(C)c2cnc(Nc3ccc(N4CCNCC4)cn3)nc2n(C2CCCC2)c1=O [Palbociclib] + O=C(c1cc(Cc2n[nH]c(=O)c3ccccc23)ccc1F)N1CCN(C(=O)C2CC2)CC1 [Olaparib] (partner 8 µM)
Method in brief: as §1

Palbociclib + AZD7762 = compound: CC(=O)c1c(C)c2cnc(Nc3ccc(N4CCNCC4)cn3)nc2n(C2CCCC2)c1=O [Palbociclib] + NC(=O)Nc1cc(-c2cccc(F)c2)sc1C(=O)N[C@H]1CCCNC1 [AZD7762] (partner 0.2 µM)
Method in brief: as §1

Palbociclib + OSI-027 = compound: CC(=O)c1c(C)c2cnc(Nc3ccc(N4CCNCC4)cn3)nc2n(C2CCCC2)c1=O [Palbociclib] + COc1cccc2cc(-c3nc([C@H]4CC[C@H](C(=O)O)CC4)n4ncnc(N)c34)[nH]c12 [OSI-027] (partner 0.5 µM)
Method in brief: as §1

Palbociclib + Decitabine = compound: CC(=O)c1c(C)c2cnc(Nc3ccc(N4CCNCC4)cn3)nc2n(C2CCCC2)c1=O [Palbociclib] + Nc1ncn([C@H]2C[C@H](O)[C@@H](CO)O2)c(=O)n1 [Decitabine] (partner 2 µM)
Method in brief: as §1

NCI-H1648
relative viability (Palbociclib; 0.01 µM): 1.12 | relative viability (Palbociclib; 0.03162 µM): 0.451 | relative viability (Palbociclib; 0.1 µM): 0.667 | relative viability (Palbociclib; 0.3162 µM): 0.764 | relative viability (Palbociclib; 0.5 µM, anchor plate): 0.284 | relative viability (Palbociclib; 1 µM): 0.336 | relative viability (Palbociclib + Tozasertib; first compound 0.01 µM): 0.585 | relative viability (Palbociclib + Tozasertib; first compound 0.1 µM): 0.405 | relative viability (Palbociclib + Tozasertib; first compound 0.3162 µM): 0.526 | relative viability (Palbociclib + Tozasertib; first compound 1 µM): 0.175 | relative viability (Palbociclib + Trametinib; first compound 0.01 µM): 0.657 | relative viability (Palbociclib + Trametinib; first compound 0.03162 µM): 0.364 | relative viability (Palbociclib + Trametinib; first compound 0.1 µM): 0.357 | relative viability (Palbociclib + Trametinib; first compound 0.3162 µM): 0.45 | relative viability (Palbociclib + Trametinib; first compound 1 µM): 0.406 | relative viability (Palbociclib + Pemetrexed; first compound 0.01 µM): 0.76 | relative viability (Palbociclib + Pemetrexed; first compound 0.03162 µM): 0.549 | relative viability (Palbociclib + Pemetrexed; first compound 0.1 µM): 0.562 | relative viability (Palbociclib + Pemetrexed; first compound 0.3162 µM): 0.582 | relative viability (Palbociclib + Pemetrexed; first compound 1 µM): 0.411 | relative viability (Palbociclib + Vorinostat; first compound 0.01 µM): 0.869 | relative viability (Palbociclib + Vorinostat; first compound 0.03162 µM): 0.426 | relative viability (Palbociclib + Vorinostat; first compound 0.1 µM): 0.386 | relative viability (Palbociclib + Vorinostat; first compound 0.3162 µM): 0.388 | relative viability (Palbociclib + Vorinostat; first compound 1 µM): 0.398 | relative viability (Palbociclib + Olaparib; first compound 0.01 µM): 0.679 | relative viability (Palbociclib + Olaparib; first compound 0.03162 µM): 0.71 | relative viability (Palbociclib + Olaparib; first compound 0.1 µM): 0.518 | relative viability (Palbociclib + Olaparib; first compound 0.3162 µM): 0.587 | relative viability (Palbociclib + Olaparib; first compound 1 µM): 0.37 | relative viability (Palbociclib + AZD7762; first compound 0.01 µM): 0.841 | relative viability (Palbociclib + AZD7762; first compound 0.03162 µM): 0.436 | relative viability (Palbociclib + AZD7762; first compound 0.1 µM): 0.598 | relative viability (Palbociclib + AZD7762; first compound 0.3162 µM): 0.657 | relative viability (Palbociclib + AZD7762; first compound 1 µM): 0.56 | relative viability (Palbociclib + OSI-027; first compound 0.01 µM): 0.264 | relative viability (Palbociclib + OSI-027; first compound 0.1 µM): 0.256 | relative viability (Palbociclib + OSI-027; first compound 0.3162 µM): 0.27 | relative viability (Palbociclib + OSI-027; first compound 1 µM): 0.251 | relative viability (Palbociclib + Decitabine; first compound 0.01 µM): 0.651 | relative viability (Palbociclib + Decitabine; first compound 0.03162 µM): 0.376 | relative viability (Palbociclib + Decitabine; first compound 0.1 µM): 0.445 | relative viability (Palbociclib + Decitabine; first compound 0.3162 µM): 0.511 | relative viability (Palbociclib + Decitabine; first compound 1 µM): 0.339
